Assay results reported in ChEMBL document CHEMBL3797052 (Eur J Med Chem, 2016).

Tested on: HT-29
Experiment: Antiproliferative activity against human HT-29 cells assessed as cell growth at 10^-8 M after 48 hrs by sulforhodamine B assay
Assay type: functional
Settings: HT-29, 48 h, read-out: Activity

| Compound | growth at 0.01 µM [%] |
| --- | --- |
| CNC(=O)c1cc(Oc2ccc3nc(NC(=O)Nc4cc(C(F)(F)F)cc(C(F)(F)F)c4)sc3c2)ccn1 | 97 |

Tested on: NCI-H322M
Experiment: Antiproliferative activity against human NCI-H322M cells assessed as cell growth at 10^-4 M after 48 hrs by sulforhodamine B assay
Assay type: functional
Settings: read-out: Activity

| Compound | growth at 100 µM [%] |
| --- | --- |
| CNC(=O)c1cc(Oc2ccc3nc(NC(=O)Nc4cc(C(F)(F)F)cc(C(F)(F)F)c4)sc3c2)ccn1 | -50 |

Tested on: not listed separately
Experiment: Antiproliferative activity against human OVCAR3 cells assessed as cell growth at 10^-4 M after 48 hrs by sulforhodamine B assay
Assay type: functional
Settings: OVCAR-3, 48 h, read-out: Activity

| Compound | growth at 100 µM [%] |
| --- | --- |
| CNC(=O)c1cc(Oc2ccc3nc(NC(=O)Nc4cc(C(F)(F)F)cc(C(F)(F)F)c4)sc3c2)ccn1 | -89 |

Molecular target: Serine/threonine-protein kinase B-raf (Homo sapiens, UniProt P15056, V600E)
Experiment: Inhibition of BRAF V600E mutant (unknown origin) measured after 40 mins by scintillation counting
Settings: not given

Chain of Serine/threonine-protein kinase B-raf (P15056 2-766 V600E limits assumed): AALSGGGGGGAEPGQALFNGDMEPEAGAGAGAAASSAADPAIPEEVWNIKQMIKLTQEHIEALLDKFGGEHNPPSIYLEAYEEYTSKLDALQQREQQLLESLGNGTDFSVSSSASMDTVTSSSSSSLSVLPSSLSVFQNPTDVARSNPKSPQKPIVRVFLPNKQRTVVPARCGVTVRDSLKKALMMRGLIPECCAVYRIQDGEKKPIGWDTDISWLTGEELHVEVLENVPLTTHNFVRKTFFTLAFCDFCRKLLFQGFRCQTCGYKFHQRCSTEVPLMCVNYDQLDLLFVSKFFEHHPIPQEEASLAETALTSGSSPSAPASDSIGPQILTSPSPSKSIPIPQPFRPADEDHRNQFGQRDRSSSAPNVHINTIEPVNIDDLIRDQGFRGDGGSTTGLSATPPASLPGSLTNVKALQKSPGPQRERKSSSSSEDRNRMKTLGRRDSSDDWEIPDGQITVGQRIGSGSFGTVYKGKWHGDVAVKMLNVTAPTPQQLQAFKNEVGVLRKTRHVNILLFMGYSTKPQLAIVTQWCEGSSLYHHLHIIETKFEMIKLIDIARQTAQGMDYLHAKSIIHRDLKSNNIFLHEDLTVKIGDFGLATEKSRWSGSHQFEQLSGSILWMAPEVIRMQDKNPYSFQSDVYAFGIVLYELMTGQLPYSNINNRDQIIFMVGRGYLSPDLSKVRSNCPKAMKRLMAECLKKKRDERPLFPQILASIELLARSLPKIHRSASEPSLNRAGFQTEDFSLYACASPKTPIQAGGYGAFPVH

| Compound | IC50 [nM] |
| --- | --- |
| CNC(=O)c1cc(Oc2ccc3nc(NC(=O)Nc4cc(C(F)(F)F)cc(C(F)(F)F)c4)sc3c2)ccn1 | 1230 |

Tested on: not listed separately
Experiment: Antiproliferative activity against human RXF393 cells assessed as cell growth at 10^-6 M after 48 hrs by sulforhodamine B assay
Assay type: functional
Settings: RXF 393, 48 h, read-out: Activity

| Compound | growth at 1 µM [%] |
| --- | --- |
| CNC(=O)c1cc(Oc2ccc3nc(NC(=O)Nc4cc(C(F)(F)F)cc(C(F)(F)F)c4)sc3c2)ccn1 | 63 |

Tested on: not listed separately
Experiment: Antiproliferative activity against human UACC62 cells assessed as cell growth at 10^-7 M after 48 hrs by sulforhodamine B assay
Assay type: functional
Settings: UACC-62, 48 h, read-out: Activity

| Compound | growth at 0.1 µM [%] |
| --- | --- |
| CNC(=O)c1cc(Oc2ccc3nc(NC(=O)Nc4cc(C(F)(F)F)cc(C(F)(F)F)c4)sc3c2)ccn1 | 93 |

Tested on: SK-MEL-5
Experiment: Antiproliferative activity against human SK-MEL-5 cells assessed as growth inhibition after 48 hrs by sulforhodamine B assay
Assay type: functional
Settings: SK-MEL-5, 48 h

| Compound | GI50 [nM] | TGI [nM] |
| --- | --- | --- |
| CNC(=O)c1cc(Oc2ccc3nc(NC(=O)Nc4cc(C(F)(F)F)cc(C(F)(F)F)c4)sc3c2)ccn1 | 593 | 2090 |

Same assay, conditions: SK-MEL-5, 48 h, read-out: LC50 (the source's name)

| Compound | CC50 [nM] |
| --- | --- |
| CNC(=O)c1cc(Oc2ccc3nc(NC(=O)Nc4cc(C(F)(F)F)cc(C(F)(F)F)c4)sc3c2)ccn1 | 5870 |

Tested on: U-251
Experiment: Antiproliferative activity against human U251 cells assessed as cell growth at 10^-8 M after 48 hrs by sulforhodamine B assay
Assay type: functional
Settings: U-251, 48 h, read-out: Activity

| Compound | growth at 0.01 µM [%] |
| --- | --- |
| CNC(=O)c1cc(Oc2ccc3nc(NC(=O)Nc4cc(C(F)(F)F)cc(C(F)(F)F)c4)sc3c2)ccn1 | 103 |

Tested on: ACHN
Experiment: Antiproliferative activity against human ACHN cells assessed as cell growth at 10^-4 M after 48 hrs by sulforhodamine B assay
Assay type: functional
Settings: read-out: Activity

| Compound | growth at 100 µM [%] |
| --- | --- |
| CNC(=O)c1cc(Oc2ccc3nc(NC(=O)Nc4cc(C(F)(F)F)cc(C(F)(F)F)c4)sc3c2)ccn1 | -80 |

Tested on: not listed separately
Experiment: Antiproliferative activity against human HOP62 cells assessed as cell growth at 10^-4 M after 48 hrs by sulforhodamine B assay
Assay type: functional
Settings: HOP-62, 48 h, read-out: Activity

| Compound | growth at 100 µM [%] |
| --- | --- |
| CNC(=O)c1cc(Oc2ccc3nc(NC(=O)Nc4cc(C(F)(F)F)cc(C(F)(F)F)c4)sc3c2)ccn1 | -76 |

Tested on: not listed separately
Experiment: Antiproliferative activity against human HL-60(TB) cells assessed as cell growth at 10^-4 M after 48 hrs by sulforhodamine B assay
Assay type: functional
Settings: HL-60, 48 h, read-out: Activity

| Compound | growth at 100 µM [%] |
| --- | --- |
| CNC(=O)c1cc(Oc2ccc3nc(NC(=O)Nc4cc(C(F)(F)F)cc(C(F)(F)F)c4)sc3c2)ccn1 | -59 |

Tested on: NCI-H522
Experiment: Antiproliferative activity against human NCI-H522 cells assessed as cell growth at 10^-6 M after 48 hrs by sulforhodamine B assay
Assay type: functional
Settings: NCI-H522, 48 h, read-out: Activity

| Compound | growth at 1 µM [%] |
| --- | --- |
| CNC(=O)c1cc(Oc2ccc3nc(NC(=O)Nc4cc(C(F)(F)F)cc(C(F)(F)F)c4)sc3c2)ccn1 | 32 |

Tested on: not listed separately
Experiment: Antiproliferative activity against human SW620 cells assessed as cell growth at […] M after 48 hrs by sulforhodamine B assay
Assay type: functional
Settings: SW-620, 48 h, read-out: Activity

| Compound | growth at 0.01 µM [%] |
| --- | --- |
| CNC(=O)c1cc(Oc2ccc3nc(NC(=O)Nc4cc(C(F)(F)F)cc(C(F)(F)F)c4)sc3c2)ccn1 | 102 |

Tested on: not listed separately
Experiment: Antiproliferative activity against human HCT116 cells assessed as cell growth at 10^-4 M after 48 hrs by sulforhodamine B assay
Assay type: functional
Settings: HCT-116, 48 h, read-out: Activity

| Compound | growth at 100 µM [%] |
| --- | --- |
| CNC(=O)c1cc(Oc2ccc3nc(NC(=O)Nc4cc(C(F)(F)F)cc(C(F)(F)F)c4)sc3c2)ccn1 | -95 |

Tested on: MDA-MB-468
Experiment: Antiproliferative activity against human MDA-MB-468 cells assessed as cell growth at 10^-7 M after 48 hrs by sulforhodamine B assay
Assay type: functional
Settings: MDA-MB-468, 48 h, read-out: Activity

| Compound | growth at 0.1 µM [%] |
| --- | --- |
| CNC(=O)c1cc(Oc2ccc3nc(NC(=O)Nc4cc(C(F)(F)F)cc(C(F)(F)F)c4)sc3c2)ccn1 | 91 |

Tested on: not listed separately
Experiment: Antiproliferative activity against human TK10 cells assessed as cell growth at 10^-7 M after 48 hrs by sulforhodamine B assay
Assay type: functional
Settings: TK-10, 48 h, read-out: Activity

| Compound | growth at 0.1 µM [%] |
| --- | --- |
| CNC(=O)c1cc(Oc2ccc3nc(NC(=O)Nc4cc(C(F)(F)F)cc(C(F)(F)F)c4)sc3c2)ccn1 | 109 |

Tested on: not listed separately
Experiment: Antiproliferative activity against human SW620 cells assessed as growth inhibition after 48 hrs by sulforhodamine B assay
Assay type: functional
Settings: SW-620, 48 h

| Compound | GI50 [nM] | TGI [nM] |
| --- | --- | --- |
| CNC(=O)c1cc(Oc2ccc3nc(NC(=O)Nc4cc(C(F)(F)F)cc(C(F)(F)F)c4)sc3c2)ccn1 | 1560 | 3290 |

Same assay, conditions: SW-620, 48 h, read-out: LC50 (the source's name)

| Compound | CC50 [nM] |
| --- | --- |
| CNC(=O)c1cc(Oc2ccc3nc(NC(=O)Nc4cc(C(F)(F)F)cc(C(F)(F)F)c4)sc3c2)ccn1 | 6970 |

Tested on: NCI-H23
Experiment: Antiproliferative activity against human NCI-H23 cells assessed as cell growth at 10^-7 M after 48 hrs by sulforhodamine B assay
Assay type: functional
Settings: NCI-H23, 48 h, read-out: Activity

| Compound | growth at 0.1 µM [%] |
| --- | --- |
| CNC(=O)c1cc(Oc2ccc3nc(NC(=O)Nc4cc(C(F)(F)F)cc(C(F)(F)F)c4)sc3c2)ccn1 | 95 |
